Data taken from patent US4791118A, “Quinolonecarboxylic acid derivatives and their preparation” (Kyorin Pharmaceutical Co., Ltd., priority 1985, dated 1988).
Values after ≈ are worked out from the molar mass of the structure shown. Like-named read-outs stand apart in the source and are kept apart here.

Assays:
[1] = test system: S. pneumoniae 2950; assay: MIC, clinical isolates; assay type: cell-based; conditions: Streptococcus pneumoniae; clinical isolate S. pneumoniae 2950; 10^6 cells/ml
[2] = test system: S. pyogenes 3107; assay: MIC, clinical isolates; assay type: cell-based; conditions: Streptococcus pyogenes; clinical isolate S. pyogenes 3107; 10^6 cells/ml
[3] = test system: S. agalactiae 4470; assay: MIC, clinical isolates; assay type: cell-based; conditions: Streptococcus agalactiae; clinical isolate S. agalactiae 4470; 10^6 cells/ml
[4] = test system: E. faecalis 49; assay: MIC, clinical isolates; assay type: cell-based; conditions: Enterococcus faecalis; clinical isolate E. faecalis 49; 10^6 cells/ml
[5] = test system: Alcaligenes faecalis 0114002; assay: MIC, aerobic bacteria
[6] = test system: Peptostreptococcus anaerobius KYA 27337; assay: MIC, anaerobic bacteria; assay type: cell-based; conditions: KYA27337, Gram +, 10^6 cells/ml
[7] = test system: K. pneumoniae 1-220S; assay: microbe, parasite or virus in culture; conditions: Klebsiella pneumoniae, 1220S
[8] = test system: Eubacterium limosum KYA 8486; assay: MIC, anaerobic bacteria; conditions: KYA8486
[9] = test system: S. pneumoniae 17; assay: MIC, clinical isolates; assay type: cell-based; conditions: Streptococcus pneumoniae; clinical isolate S. pneumoniae 17; 10^6 cells/ml
[10] = test system: S. pyogenes 3130; assay: MIC, clinical isolates; assay type: cell-based; conditions: Streptococcus pyogenes; clinical isolate S. pyogenes 3130; 10^6 cells/ml
[11] = test system: E. faecalis 214; assay: MIC, clinical isolates; assay type: cell-based; conditions: Enterococcus faecalis; clinical isolate E. faecalis 214; 10^6 cells/ml
[12] = test system: S. pyogenes IID 692; assay: MIC, aerobic bacteria; assay type: cell-based; conditions: Streptococcus pyogenes, IID692, Gram +, 10^6 cells/ml
[13] = test system: Streptococcus pyogenes (S-8); assay: MIC, aerobic bacteria; assay type: cell-based; conditions: Gram +, 10^6 cells/ml
[14] = test system: C. ramosum; assay: MIC, anaerobic bacteria; conditions: Thomasclavelia ramosa
[15] = test system: S. pneumoniae 3727; assay: MIC, clinical isolates; assay type: cell-based; conditions: Streptococcus pneumoniae; clinical isolate S. pneumoniae 3727; 10^6 cells/ml
[16] = test system: Yersinia enterocolitica IID 981; assay: microbe, parasite or virus in culture; conditions: IID981
[17] = test system: S. marcescens GN 7577; assay: MIC, aerobic bacteria; assay type: cell-based; conditions: Serratia marcescens, GN7577, Gram -, 10^6 cells/ml
[18] = test system: Shigella sonnei IID 969; assay: microbe, parasite or virus in culture; conditions: IID969
[19] = test system: C. perfringens KYA 13123; assay: microbe, parasite or virus in culture; assay type: cell-based; conditions: Clostridium perfringens, KYA13123
[20] = test system: S. agalactiae 4394; assay: microbe, parasite or virus in culture; conditions: Streptococcus agalactiae
[21] = test system: F. necrophorum S-45; assay: MIC, anaerobic bacteria; assay type: cell-based; conditions: Fusobacterium necrophorum, S45, Gram -, 10^6 cells/ml
[22] = test system: P. aeruginosa IFO 12689; assay: MIC, aerobic bacteria; assay type: cell-based; conditions: Pseudomonas aeruginosa, IFO12689, Gram -, 10^6 cells/ml
[23] = test system: S. pyogenes 3131; assay: MIC, clinical isolates; assay type: cell-based; conditions: Streptococcus pyogenes; clinical isolate S. pyogenes 3131; 10^6 cells/ml
[24] = test system: S. agalactiae 4368; assay: MIC, clinical isolates; assay type: cell-based; conditions: Streptococcus agalactiae; clinical isolate S. agalactiae 4368; 10^6 cells/ml
[25] = test system: Propionibacterium acens 11828; assay: MIC, anaerobic bacteria; assay type: cell-based
[26] = test system: Salmonella enteritidis IID 604; assay: microbe, parasite or virus in culture; conditions: Salmonella enterica
[27] = test system: Staphylococcus aureus 209 P; assay: microbe, parasite or virus in culture
[28] = test system: Enterobacter cloacae IID 977; assay: MIC, aerobic bacteria; conditions: IID977
[29] = test system: S. pneumoniae 15; assay: MIC, clinical isolates; assay type: cell-based; conditions: Streptococcus pneumoniae; clinical isolate S. pneumoniae 15; 10^6 cells/ml
[30] = test system: P. maltophilia GIFU 2491; assay: MIC, aerobic bacteria; assay type: cell-based; conditions: Stenotrophomonas maltophilia, GIFU2491, Gram -, 10^6 cells/ml
[31] = test system: E. faecalis 401; assay: MIC, clinical isolates; assay type: cell-based; conditions: Enterococcus faecalis; clinical isolate E. faecalis 401; 10^6 cells/ml
[32] = test system: S. pneumoniae IID 552; assay: MIC, aerobic bacteria; assay type: cell-based; conditions: Streptococcus pneumoniae, IID552, Gram +, 10^6 cells/ml
[33] = test system: Bacillus subtilis PCI 219; assay: microbe, parasite or virus in culture; conditions: PCI219
[34] = test system: F. varium KYA 8501; assay: microbe, parasite or virus in culture; conditions: Fusobacterium varium, KYA8501
[35] = test system: E. faecalis IID 682; assay: MIC, aerobic bacteria; assay type: cell-based; conditions: Enterococcus faecalis, IID682, Gram +, 10^6 cells/ml
[36] = test system: P. aeruginosa IID 1210; assay: MIC, aerobic bacteria; assay type: cell-based; conditions: Pseudomonas aeruginosa, IID1210, Gram -, 10^6 cells/ml
[37] = test system: B. thetaiotaomicron (0661); assay: MIC, anaerobic bacteria; assay type: cell-based; conditions: Bacteroides thetaiotaomicron, Gram -, 10^6 cells/ml
[38] = test system: S. agalactiae 4049; assay: MIC, clinical isolates; assay type: cell-based; conditions: Streptococcus agalactiae; clinical isolate S. agalactiae 4049; 10^6 cells/ml

| Structure (SMILES) | MIC [1] [µg/mL] | MIC [2] [µg/mL] | MIC [3] [µg/mL] | MIC [4] [µg/mL] | MIC [5] [µg/mL] | MIC [6] [µg/mL] | MIC [7] [µg/mL] | MIC [8] [µg/mL] | MIC [9] [µg/mL] | MIC [10] [µg/mL] | MIC [11] [µg/mL] | MIC [12] [µg/mL] | MIC [13] [µg/mL] | MIC [14] [µg/mL] | MIC [15] [µg/mL] | MIC [16] [µg/mL] | MIC [17] [µg/mL] | MIC [18] [µg/mL] | MIC [19] [µg/mL] | MIC [20] [µg/mL] | further results |
| --- | --- | --- | --- | --- | --- | --- | --- | --- | --- | --- | --- | --- | --- | --- | --- | --- | --- | --- | --- | --- | --- |
| O=C(O)c1cn(C2CC2)c2c(Cl)c(N3CCC(CNCCF)C3)c(F)cc2c1=O (stereo not shown) [Exp. 1, 8-Chloro-1-cyclopropyl-6-fluoro-7-[3-(2-fluoroethyl)aminomethyl-1-pyrrolidinyl]-1,4-dihydro-4-oxo-3-quinolinecarboxylic acid] | 0.025 (≈ 0.0587 µM) | 0.025 (≈ 0.0587 µM) | 0.025 (≈ 0.0587 µM) | 0.05 (≈ 0.117 µM) | 0.39 (≈ 0.916 µM) | ≤ 0.05 | 0.1 (≈ 0.235 µM) | 0.39 (≈ 0.916 µM) | 0.025 (≈ 0.0587 µM) | 0.025 (≈ 0.0587 µM) | 0.05 (≈ 0.117 µM) | 0.05 (≈ 0.117 µM) | 0.025 (≈ 0.0587 µM) | 0.1 (≈ 0.235 µM) | 0.025 (≈ 0.0587 µM) | 0.1 (≈ 0.235 µM) | 1.56 (≈ 3.66 µM) | 0.0125 (≈ 0.0294 µM) | ≤ 0.05 | 0.1 (≈ 0.235 µM) | MIC [21]: 0.1 µg/mL (≈ 0.235 µM); MIC [22]: 1.56 µg/mL (≈ 3.66 µM); MIC [23]: 0.025 µg/mL (≈ 0.0587 µM); MIC [24]: 0.025 µg/mL (≈ 0.0587 µM); MIC ([25]; Propionibacterium, 11828): 0.78 µg/mL (≈ 1.83 µM); MIC [26]: 0.1 µg/mL (≈ 0.235 µM); MIC [27]: ≤ 0.0063 µg/mL; MIC [28]: 0.1 µg/mL (≈ 0.235 µM); MIC [29]: 0.025 µg/mL (≈ 0.0587 µM); MIC [30]: 0.2 µg/mL (≈ 0.47 µM); MIC [31]: 0.05 µg/mL (≈ 0.117 µM); MIC [32]: 0.025 µg/mL (≈ 0.0587 µM); MIC [33]: ≤ 0.0063 µg/mL; MIC [34]: 0.39 µg/mL (≈ 0.916 µM); MIC [35]: 0.05 µg/mL (≈ 0.117 µM); MIC [36]: 1.56 µg/mL (≈ 3.66 µM); MIC [37]: 0.2 µg/mL (≈ 0.47 µM); MIC [38]: 0.025 µg/mL (≈ 0.0587 µM) |
| O=C(O)c1cn(C2CC2)c2c(F)c(N3CCC(CNCCF)C3)c(F)cc2c1=O (stereo not shown) [Exp. 2, 1-Cyclopropyl-7-[3-(2-fluoroethyl)aminomethyl-1-pyrrolidinyl]-6,8-difluoro-1,4-dihydro-4-oxo-3-quinolinecarboxylic acid] | 0.05 (≈ 0.122 µM) | 0.05 (≈ 0.122 µM) | 0.05 (≈ 0.122 µM) | 0.05 (≈ 0.122 µM) | 0.39 (≈ 0.953 µM) | ≤ 0.05 | 0.1 (≈ 0.244 µM) | 0.78 (≈ 1.91 µM) | 0.05 (≈ 0.122 µM) | 0.05 (≈ 0.122 µM) | 0.05 (≈ 0.122 µM) | 0.1 (≈ 0.244 µM) | 0.05 (≈ 0.122 µM) | 0.39 (≈ 0.953 µM) | 0.05 (≈ 0.122 µM) | 0.1 (≈ 0.244 µM) | 1.56 (≈ 3.81 µM) | 0.0125 (≈ 0.0305 µM) | 0.1 (≈ 0.244 µM) | 0.1 (≈ 0.244 µM) | MIC [21]: 0.2 µg/mL (≈ 0.489 µM); MIC [22]: 1.56 µg/mL (≈ 3.81 µM); MIC [23]: 0.05 µg/mL (≈ 0.122 µM); MIC [24]: 0.05 µg/mL (≈ 0.122 µM); MIC ([25]; Propionibacterium acens 11828, anaerobic, Gram +, 10^6 cells/ml, read-out: MIC): 1.56 µg/mL (≈ 3.81 µM); MIC [26]: 0.1 µg/mL (≈ 0.244 µM); MIC [27]: 0.0125 µg/mL (≈ 0.0305 µM); MIC [28]: 0.1 µg/mL (≈ 0.244 µM); MIC [29]: 0.05 µg/mL (≈ 0.122 µM); MIC [30]: 0.2 µg/mL (≈ 0.489 µM); MIC [31]: 0.1 µg/mL (≈ 0.244 µM); MIC [32]: 0.05 µg/mL (≈ 0.122 µM); MIC [33]: 0.0125 µg/mL (≈ 0.0305 µM); MIC [34]: 0.78 µg/mL (≈ 1.91 µM); MIC [35]: 0.1 µg/mL (≈ 0.244 µM); MIC [36]: 1.56 µg/mL (≈ 3.81 µM); MIC [37]: 0.78 µg/mL (≈ 1.91 µM); MIC [38]: 0.05 µg/mL (≈ 0.122 µM) |
